Key:
Format in all cases: cell-based, human
CD34+ cells = experiment: Ex vivo expansion of CD34+ cell enriched cultures with RXR, RAR and RAR+RXR antagonists (CFU, CD34+ counts, FACS); conditions: 10^−7 M, with TPO, FLT3, IL-6 and IL-3; 3 and 5 weeks
Description: Cultures were prepared and maintained as described above.
, the percentage of cells bearing the CD34^+ marker (considered to be mostly committed progenitor cells), as well as the percentage of cells bearing the markers CD34^+/CD38^− and CD34^+Lin^− […]

mononuclear cells = experiment: RAR antagonist treatment of mononuclear cell fraction cultures; conditions: Cytokines + RAR antagonist 10^−6 M; for % CD34/Lin^−: reselected CD34+ fraction
Description: Human blood cells were obtained from umbilical cord blood from female patients following full-term, normal delivery (informed consent was obtained). Samples were collected and processed within 12 hours postpartum. Blood was mixed with 3% Gelatin (Sigma, St. Louis, Mo.), sedimented for 30 minutes to remove most red blood cells. The leukocyte-rich fraction was harvested and layered on a Ficoll-Hypaque gradient (1.077 gram/ml; Sigma), and centrifuged at 400 g for 30 minutes. The mononuclear cell fraction in the interface layer was collected, washed three times and resuspended in phosphate-buffered saline (PBS) solution (Biological Industries) containing 0.5% bovine serum albumin (BSA, Fraction V; Sigma).
Alternatively, whole mononuclear fraction cells (MNC) were isolated, cultured and supplemented with cytokines, as above.
CD34^+ purified and whole MNC cultures were prepared and maintained as described above. AGN 194310 RAR antagonist was added to test cultures at concentrations ranging from […] [or 410 μg/l to 4.1×10^−5 μg/l]. The antagonist was added for a predetermined, limited period, for up to three weeks or continuously during the entire culture period.
CD34 surface expression on short and long-term cultures initiated either with purified CD34^+ cells or the entire MNC fraction was determined as follows: CD34^+ cells were positively reselected (Miltenyi kit) and counted. Purity was confirmed by subsequent FACS and cell morphology analysis.
Reselected CD34^+ cell subsets were stained for the following combination of antigens: CD34PE/CD38FITC and CD34PE/38, 33, 14, 15, 3, 4, 61, 19 (Lin) FITC. The fraction positive for CD34 and negative for CD38 was defined as CD34^+CD38^−. The fraction positive for CD34 and negative for LIN was defined as CD34^+Lin^− cell fraction.

HL-60 cells = experiment: Copper determination in chelator treated cells (atomic absorption)
Description: Copper Determination: Cells were harvested by centrifugation at 1000×g for 5 minutes. The cell pellet was washed three times by re-suspending the cells in PBS (Ca^++ and Mg^++ free) and centrifugation at 1000×g. An aliquot containing 2×10^6 cells was then transferred into a metal-free Eppendorf tube and the cells were recovered by centrifugation at 1000×g. The cell pellet was re-suspended in 0.03 M ultra-pure nitric acid to give a concentration of 1×10^7 cells/ml. The cells were homogenized with a high shear mixer (polytron, Kinematica, Switzerland) for 1 minutes to disrupt the cell and release intracellular copper content. Cell samples were vortexed before transferring to a vial autosampler and analyzed in duplicate by a Perkin Elmer graphite furnace atomic absorption spectrophotometer at a wavelength of 324.7 nm. The samples were analyzed against copper standard solution prepared from a commercial stock solution that was diluted with 0.03 M ultra pure nitric acid.
FIG. 44 provides the chemical structure of the various chelators employed in these experiments.

## CCc1ccc(C2=CC(C)(C)Sc3ccc(C#Cc4ccc(C(=O)O)cc4)cc32)cc1 [AGN 194310]
CD34+ cells
  activity on ex vivo expansion of stem/progenitor cells (CFU, CD34+, CD34+/38−, CD34+/Lin−): moderate activity
Mononuclear cells; 2 weeks
  No of CD34^+/Lin^− × 10^4 (cumulative value): 132.5 × 10^4
  No of CD34 cells × 10^4 (cumulative value): 169 × 10^4
  % CD34/Lin^−: 78%
Mononuclear cells; 5 weeks
  No of CD34^+/Lin^− × 10^4 (cumulative value): 237.8 × 10^4
  No of CD34 cells × 10^4 (cumulative value): 985 × 10^4
  % CD34/Lin^−: 24%

## NCCNCCNCCNCCN [TEPA, tetraethylenepentamine]
HL-60 cells; 20 μM chelator
  Average Intracellular ppb Cu: 31.5 ppb
HL-60 cells; 100 μM chelator
  Average Intracellular ppb Cu: 24.1 ppb
HL-60 cells; 500 μM chelator
  Average Intracellular ppb Cu: 17.1 ppb
HL-60 cells; Homo sapiens, HL-60, 20 μM chelator, read-out: Average Intracellular Cu (% of control)
  activity at 20 µM: 64%
HL-60 cells; Homo sapiens, HL-60, 100 μM chelator, read-out: Average Intracellular Cu (% of control)
  activity at 100 µM: 49%
HL-60 cells; Homo sapiens, HL-60, 500 μM chelator, read-out: Average Intracellular Cu (% of control)
  activity at 500 µM: 35%

Reference: patent publication US20050054103A1, “Expansion of renewable stem cell populations using modulators of PI 3-kinase” (priority 2003, published 2005)
